Results reported in ChEMBL document CHEMBL5113515, “The Discovery of GSK3640254, a Next-Generation Inhibitor of HIV-1 Maturation” (J Med Chem, 2022).

Tested on: Human immunodeficiency virus 1
Experiment: Antiviral activity against HIV1 wild type subtype C NL (4 to 3) transfected in human HEK293T cells by dual-luciferase reporter assay
Type: functional, organism-based
Details: Human immunodeficiency virus 1, HEK-293T

## C=C(C)[C@@H]1CC[C@]2(NCCN3CCS(=O)(=O)CC3)CC[C@]3(C)[C@H](CC[C@@H]4[C@@]5(C)CC=C(C6=CC[C@@](CF)(C(=O)O)CC6)C(C)(C)[C@@H]5CC[C@]43C)[C@@H]12 [FIPRAVIRIMAT]
  EC50: 1.2 nM
